From article PMC2753520 (Journal of medicinal chemistry, 2009)

Experiment: PAMPA passive permeability
Format: in vitro ADME
Conditions: pH 7.4

With CCCCCCOc1ccc(C(=O)CCN(C)C)c2ccccc12 [13{1}] the “Permeability (PAMPA, Pe)” value was “high permeability”.
